Measurements as given in ChEMBL document CHEMBL6087474, “Discovery of an Efficacious RET PROTAC Degrader with Enhanced Antiproliferative Activity against Resistant Cancer Cells Harboring RET Solvent-Front Mutations” (J Med Chem, 2025).
pIC50: −log10 of the molar value. Active and inactive are the calls of the source. No cut-off for these calls is given here.

Legend:
[1] = Induction of apoptosis in mouse BaF3 cells stably expressing KIF5B-RET-G810C mutant assessed as necrotic cells at 100 nM measured after 48 hrs by Annexin V-FITC/7-AAD staining based flow cytometric analysis (reference value: 2.89 %); format: functional
BaF3 [2] = experiment: PROTAC activity at CRBN/KIF5B-RET (unknown origin) expressed in mouse BaF3 cells assessed as induction of RET degradation at 100 nM measured after 6 hrs by Western blot analysis relative to control; format: cell-based
[3] = Effect on RET protein level in mouse BaF3 cells stably expressing wildtype KIF5B-RET assessed as fold change at 33.3 nM measured after 6 hrs by Western blot analysis (reference value: 1); format: functional
BaF3 [4] = experiment: Inhibition of Shc (unknown origin) phosphorylation in mouse BaF3 cells stably expression KIF5B-RET G810R mutant at 333.3 to 3000 nM measured after 6 hrs by Western blot analysis; format: cell-based; conditions: Homo sapiens, dose 333.3-3000 nM
[5] = PROTAC activity at CRBN/KIF5B-RET-G810C mutant (unknown origin) expressed in mouse BaF3 cells assessed as induction of RET degradation measured after 6 hrs by Western blot analysis; format: cell-based; conditions: BaF3, 6 h
[6] = Induction of apoptosis in mouse BaF3 cells stably expressing KIF5B-RET-G810C mutant assessed as viable cells at 33.3 nM measured after 48 hrs by Annexin V-FITC/7-AAD staining based flow cytometric analysis (reference value: 86.58 %); format: functional; conditions: read-out: Activity
BaF3 [7] = experiment: Antiproliferative activity against mouse BaF3 cells stably expressing KIF5B-RET-G810C mutant incubated for 72 hrs by CCK-8 assay; format: functional, cell-based; conditions: BaF3, 72 h
[8] = Induction of apoptosis in mouse BaF3 cells stably expressing wildtype KIF5B-RET fusion protein assessed as necrotic cells at 100 nM measured after 48 hrs by Annexin V-FITC/7-AAD staining based flow cytometric analysis (reference value: 2.40 %); format: functional
[9] = Induction of apoptosis in mouse BaF3 cells stably expressing KIF5B-RET-G810C mutant assessed as early apoptotic cells at 33.3 nM measured after 48 hrs by Annexin V-FITC/7-AAD staining based flow cytometric analysis (reference value: 8.57 %); format: functional
[10] = Effect on RET protein level in mouse BaF3 cells stably expressing KIF5B-RET-G810R mutant assessed as fold change at 11.1 nM measured after 6 hrs by Western blot analysis (reference value: 1); format: functional
BaF3 [11] = experiment: Antiproliferative activity against mouse BaF3 cells stably expressing CCDC6-RET-V804M mutant incubated for 72 hrs by CCK-8 assay; format: functional, cell-based; conditions: BaF3, 72 h
[12] = Effect on RET protein level in mouse BaF3 cells stably expressing KIF5B-RET-V804M mutant assessed as fold change at 33.3 nM measured after 6 hrs by Western blot analysis (reference value: 1); format: functional
[13] = Effect on Shc protein level in mouse BaF3 cells stably expressing KIF5B-RET-V804M mutant assessed as fold change at 11.1 nM measured after 6 hrs by Western blot analysis (reference value: 1); format: functional
[14] = Induction of apoptosis in mouse BaF3 cells stably expressing wildtype KIF5B-RET fusion protein assessed as late apoptotic cells at 300 nM measured after 48 hrs by Annexin V-FITC/7-AAD staining based flow cytometric analysis (reference value: 1.03 %); format: functional
[15] = target: Protein cereblon/Proto-oncogene tyrosine-protein kinase receptor Ret/Kinesin-1 heavy chain (Homo sapiens) (UniProt P07949+P33176+Q96SW2); experiment: PROTAC activity at CRBN/KIF5B-RET in human LC-2-ad cells assessed as induction of RET degradation at 11.1 nM measured after 6 hrs by Western blotting analysis relative to control; format: cell-based
Sequence of Protein cereblon/Proto-oncogene tyrosine-protein kinase receptor Ret/Kinesin-1 heavy chain (Homo sapiens) (P07949 whole entry, looked up): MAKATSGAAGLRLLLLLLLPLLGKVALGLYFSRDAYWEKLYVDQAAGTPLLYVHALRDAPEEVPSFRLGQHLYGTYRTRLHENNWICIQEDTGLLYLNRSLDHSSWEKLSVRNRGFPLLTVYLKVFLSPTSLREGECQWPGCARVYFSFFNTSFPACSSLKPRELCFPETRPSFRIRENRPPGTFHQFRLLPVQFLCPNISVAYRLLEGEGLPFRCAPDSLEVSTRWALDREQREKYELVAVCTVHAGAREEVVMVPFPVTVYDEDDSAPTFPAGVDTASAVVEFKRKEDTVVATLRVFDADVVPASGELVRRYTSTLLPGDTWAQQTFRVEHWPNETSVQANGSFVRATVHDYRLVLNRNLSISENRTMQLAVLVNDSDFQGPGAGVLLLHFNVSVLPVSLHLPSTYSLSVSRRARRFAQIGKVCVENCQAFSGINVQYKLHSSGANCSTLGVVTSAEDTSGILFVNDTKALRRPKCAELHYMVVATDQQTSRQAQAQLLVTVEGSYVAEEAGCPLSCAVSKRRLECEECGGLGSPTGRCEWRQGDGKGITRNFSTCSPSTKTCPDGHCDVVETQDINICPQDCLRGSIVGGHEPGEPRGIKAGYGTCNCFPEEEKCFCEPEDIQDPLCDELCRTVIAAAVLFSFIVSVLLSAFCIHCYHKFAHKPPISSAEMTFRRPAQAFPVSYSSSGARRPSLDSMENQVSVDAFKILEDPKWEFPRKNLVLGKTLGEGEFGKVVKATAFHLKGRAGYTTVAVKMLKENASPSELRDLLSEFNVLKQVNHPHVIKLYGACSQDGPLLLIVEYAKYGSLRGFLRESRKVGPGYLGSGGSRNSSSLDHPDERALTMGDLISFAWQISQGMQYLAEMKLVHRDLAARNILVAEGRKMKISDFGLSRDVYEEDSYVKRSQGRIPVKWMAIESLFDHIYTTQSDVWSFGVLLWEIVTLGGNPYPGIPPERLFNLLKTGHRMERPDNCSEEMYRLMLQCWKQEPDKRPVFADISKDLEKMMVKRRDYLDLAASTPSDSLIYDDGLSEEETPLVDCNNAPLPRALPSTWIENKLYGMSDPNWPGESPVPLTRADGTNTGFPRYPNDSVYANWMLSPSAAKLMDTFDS
Sequence of Protein cereblon/Proto-oncogene tyrosine-protein kinase receptor Ret/Kinesin-1 heavy chain (Homo sapiens) (P33176 whole entry, looked up): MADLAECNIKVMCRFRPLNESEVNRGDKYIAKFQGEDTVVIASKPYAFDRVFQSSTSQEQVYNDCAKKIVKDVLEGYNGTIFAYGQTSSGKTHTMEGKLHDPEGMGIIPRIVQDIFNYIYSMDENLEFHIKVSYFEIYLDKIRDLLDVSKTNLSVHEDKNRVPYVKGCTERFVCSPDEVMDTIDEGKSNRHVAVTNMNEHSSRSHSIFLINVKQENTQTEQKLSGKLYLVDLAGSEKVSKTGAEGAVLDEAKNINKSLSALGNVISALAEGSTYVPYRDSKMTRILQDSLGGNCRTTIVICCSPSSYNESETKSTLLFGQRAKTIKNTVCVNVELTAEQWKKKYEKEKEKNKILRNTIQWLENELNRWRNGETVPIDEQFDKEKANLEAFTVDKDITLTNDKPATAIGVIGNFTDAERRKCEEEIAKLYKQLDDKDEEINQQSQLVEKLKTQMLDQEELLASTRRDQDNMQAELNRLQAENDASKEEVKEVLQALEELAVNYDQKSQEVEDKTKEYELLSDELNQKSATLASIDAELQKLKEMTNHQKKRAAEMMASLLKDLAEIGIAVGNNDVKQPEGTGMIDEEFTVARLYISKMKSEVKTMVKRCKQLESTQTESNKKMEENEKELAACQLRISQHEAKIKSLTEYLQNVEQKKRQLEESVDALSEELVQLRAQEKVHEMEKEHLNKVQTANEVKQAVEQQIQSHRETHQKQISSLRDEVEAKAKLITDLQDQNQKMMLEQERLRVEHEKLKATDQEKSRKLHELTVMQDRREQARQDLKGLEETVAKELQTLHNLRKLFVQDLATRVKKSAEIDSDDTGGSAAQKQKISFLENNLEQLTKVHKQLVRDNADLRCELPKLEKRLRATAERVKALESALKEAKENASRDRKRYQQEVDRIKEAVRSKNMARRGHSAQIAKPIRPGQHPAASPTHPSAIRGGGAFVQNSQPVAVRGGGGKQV
Sequence of Protein cereblon/Proto-oncogene tyrosine-protein kinase receptor Ret/Kinesin-1 heavy chain (Homo sapiens) (Q96SW2 whole entry, looked up): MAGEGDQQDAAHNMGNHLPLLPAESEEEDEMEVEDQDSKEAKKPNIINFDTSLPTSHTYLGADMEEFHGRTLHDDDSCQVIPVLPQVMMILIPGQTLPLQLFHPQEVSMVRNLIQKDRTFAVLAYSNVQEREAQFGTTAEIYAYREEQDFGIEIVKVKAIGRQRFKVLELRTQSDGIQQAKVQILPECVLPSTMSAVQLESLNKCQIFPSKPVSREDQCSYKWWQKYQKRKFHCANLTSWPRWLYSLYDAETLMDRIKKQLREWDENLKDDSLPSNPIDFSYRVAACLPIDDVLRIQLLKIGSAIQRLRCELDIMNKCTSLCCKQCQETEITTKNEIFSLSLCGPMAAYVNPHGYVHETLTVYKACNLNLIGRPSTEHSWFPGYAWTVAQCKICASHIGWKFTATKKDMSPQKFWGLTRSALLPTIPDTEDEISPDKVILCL

[16] = Induction of apoptosis in mouse BaF3 cells stably expressing KIF5B-RET-G810C mutant assessed as viable cells at 300 nM measured after 48 hrs by Annexin V-FITC/7-AAD staining based flow cytometric analysis (reference value: 86.58 %); format: functional; conditions: read-out: Activity
[17] = Induction of apoptosis in mouse BaF3 cells stably expressing KIF5B-RET-G810C mutant assessed as necrotic cells at 33.3 nM measured after 48 hrs by Annexin V-FITC/7-AAD staining based flow cytometric analysis (reference value: 2.89 %); format: functional
[18] = Induction of apoptosis in mouse BaF3 cells stably expressing wildtype KIF5B-RET fusion protein assessed as necrotic cells at 300 nM measured after 48 hrs by Annexin V-FITC/7-AAD staining based flow cytometric analysis (reference value: 2.40 %); format: functional
[19] = Effect on Shc protein level in mouse BaF3 cells stably expressing KIF5B-RET-G810R mutant assessed as fold change at 11.1 nM measured after 6 hrs by Western blot analysis (reference value: 1); format: functional
[20] = Potency index, ratio of selpercatinib IC50 to test compound IC50 for antiproliferative activity against mouse BaF3 cells stably expressing KIF5B-RET-G810C mutant incubated for 72 hrs by CCK-8 assay; format: functional
BaF3 [21] = experiment: Antiproliferative activity against mouse BaF3 cells stably expressing KIF5B-RET-V804M mutant incubated for 72 hrs by CCK-8 assay; format: functional, cell-based; conditions: BaF3, 72 h
[22] = Effect on RET protein level in mouse BaF3 cells stably expressing wildtype KIF5B-RET assessed as fold change at 11.1 nM measured after 6 hrs by Western blot analysis (reference value: 1); format: functional
BaF3 [23] = experiment: PROTAC activity at CRBN/KIF5B-RET (unknown origin) expressed in mouse BaF3 cells assessed as induction of RET degradation at 10 nM measured after 6 hrs by Western blot analysis relative to control; format: cell-based
[24] = Induction of apoptosis in mouse BaF3 cells stably expressing wildtype KIF5B-RET fusion protein assessed as early apoptotic cells at 300 nM measured after 48 hrs by Annexin V-FITC/7-AAD staining based flow cytometric analysis (reference value: 9.92 %); format: functional
[25] = Effect on RET protein level in mouse BaF3 cells stably expressing KIF5B-RET-G810C mutant assessed as fold change at 100 nM measured after 6 hrs by Western blot analysis (reference value: 1); format: functional
[26] = Induction of apoptosis in mouse BaF3 cells stably expressing wildtype KIF5B-RET fusion protein assessed as early apoptotic cells at 33.3 nM measured after 48 hrs by Annexin V-FITC/7-AAD staining based flow cytometric analysis (reference value: 9.92 %); format: functional
[27] = Effect on RET protein level in mouse BaF3 cells stably expressing KIF5B-RET-G810R mutant assessed as fold change at 33.3 nM measured after 6 hrs by Western blot analysis (reference value: 1); format: functional
[28] = Effect on RET protein level in mouse BaF3 cells stably expressing wildtype KIF5B-RET assessed as fold change at 300 nM measured after 6 hrs by Western blot analysis (reference value: 1); format: functional
[29] = Toxicity in male BALB/c mouse model implanted with mouse BaF3 cells stably expressing KIF5B-RET-G810C mutant assessed as body weight loss at 10 to 30 mg/kg, ip administered daily for 14 days; format: organism-based; conditions: in vivo, 336 h, dose 10-30 mg/kg, time 14 day

## COc1ccc(CN2C3CC2CN(c2ccc(-c4cc(-c5cnn(C6CCN(CCCCCC#Cc7cccc8c7CN(C7CCC(=O)NC7=O)C8=O)CC6)c5)cn5ncc(C#N)c45)cn2)C3)cn1 (centres undefined)
[1]
  Activity: 2.09%
BaF3 [2]
  Activity: 73%
[3]
  fold change (FC): 0.3
BaF3 [4]
  inhibition: Active
[5]
  DC50: 73.8 nM
[6]
  viability at 0.0333 µM: 85.5%
BaF3 [7]
  pIC50: 7.30
[8]
  Activity: 0.52%
[9]
  Activity: 10.15%
[10]
  fold change (FC): 1
BaF3 [11]
  pIC50: 8.00
[12]
  fold change (FC): 0.2
[13]
  fold change (FC): 1
[14]
  Activity: 1%
[15]
  Activity: 61.6%
[16]
  viability at 0.3 µM: 63.1%
[17]
  Activity: 2.77%
[18]
  Activity: 0.42%
[19]
  fold change (FC): 0.9
[20]
  Ratio IC50: ~14
BaF3 [21]
  pIC50: 7.40
[22]
  fold change (FC): 0.5
BaF3 [23]
  Activity: 60%
[24]
  Activity: 48.33%
[25]
  fold change (FC): 0.4
[26]
  Activity: 20.96%
[27]
  fold change (FC): 0.9
[28]
  fold change (FC): 0.2
[29]
  Activity: Non-toxic
